In ChEMBL document CHEMBL5365540, “Structure-activity relationship studies and biological properties evaluation of peptidic NRP-1 ligands: Investigation of N-terminal cysteine importance” (Bioorg Med Chem, 2023):
Activity calls are given as the source filed them. The rule behind the calls is not given here. Where a SMILES comes first, the peptide text is derived from it.

How the values were obtained:
NRP2-VEGA = target: T1, NRP2-VEGA (Homo sapiens, UniProt O60462+P15692); experiment: Inhibition of human biotinylated-VEGFA165 binding to recombinant human NRP-2 measured after 2 hrs by chemiluminescent based ELISA; type: protein-complex assay
T1 sequence (P15692 whole entry): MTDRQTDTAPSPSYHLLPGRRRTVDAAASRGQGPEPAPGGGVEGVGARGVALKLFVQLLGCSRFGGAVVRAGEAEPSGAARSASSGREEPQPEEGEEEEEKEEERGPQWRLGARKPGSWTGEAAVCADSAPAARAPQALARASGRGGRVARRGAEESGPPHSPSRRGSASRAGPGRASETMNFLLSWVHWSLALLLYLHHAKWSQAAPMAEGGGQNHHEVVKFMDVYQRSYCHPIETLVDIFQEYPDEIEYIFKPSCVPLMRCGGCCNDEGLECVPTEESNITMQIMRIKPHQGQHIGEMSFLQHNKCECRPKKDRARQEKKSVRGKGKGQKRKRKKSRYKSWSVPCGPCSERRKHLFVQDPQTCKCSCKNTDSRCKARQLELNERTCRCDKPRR
T1 sequence (O60462 whole entry): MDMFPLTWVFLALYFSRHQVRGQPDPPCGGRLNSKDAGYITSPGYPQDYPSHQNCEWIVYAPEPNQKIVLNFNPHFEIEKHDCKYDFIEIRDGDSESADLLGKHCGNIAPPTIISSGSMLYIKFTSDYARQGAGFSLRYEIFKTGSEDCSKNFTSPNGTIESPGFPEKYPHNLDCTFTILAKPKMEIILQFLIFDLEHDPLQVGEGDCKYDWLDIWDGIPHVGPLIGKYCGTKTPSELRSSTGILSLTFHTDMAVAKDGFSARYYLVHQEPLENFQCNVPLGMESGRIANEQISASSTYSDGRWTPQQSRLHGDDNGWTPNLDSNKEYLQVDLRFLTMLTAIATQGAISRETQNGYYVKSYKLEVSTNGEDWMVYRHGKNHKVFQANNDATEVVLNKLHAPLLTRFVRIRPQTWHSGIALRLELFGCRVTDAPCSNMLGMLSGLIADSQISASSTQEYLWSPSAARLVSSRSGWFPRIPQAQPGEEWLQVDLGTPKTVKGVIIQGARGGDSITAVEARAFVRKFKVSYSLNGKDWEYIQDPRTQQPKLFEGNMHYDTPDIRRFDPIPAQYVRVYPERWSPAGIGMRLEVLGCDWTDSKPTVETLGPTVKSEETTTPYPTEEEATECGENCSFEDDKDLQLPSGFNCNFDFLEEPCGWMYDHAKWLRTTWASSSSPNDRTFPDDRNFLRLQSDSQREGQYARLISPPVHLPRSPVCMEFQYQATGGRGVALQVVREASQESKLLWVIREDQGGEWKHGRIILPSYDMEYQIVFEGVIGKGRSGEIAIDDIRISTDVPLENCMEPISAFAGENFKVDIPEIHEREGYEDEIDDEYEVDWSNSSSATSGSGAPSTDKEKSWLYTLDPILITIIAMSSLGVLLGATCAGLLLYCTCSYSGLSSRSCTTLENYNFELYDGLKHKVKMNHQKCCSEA

[1] = target: VEGFR2-VEGA (Homo sapiens) (UniProt P15692+P35968); experiment: Inhibition of human biotinylated-VEGFA165 binding to recombinant human VEGFR2 measured after 2 hrs by chemiluminescent based ELISA; type: protein-complex assay
MDA-MB-231 [2] = experiment: Increase in NRP-1 expression in human MDA-MB-231 cell membrane at 72 uM preincubated for 15 mins at 4 degC followed by compound washout and further incubated for 60 mins with subsequent addition of compound at 37 degC by FITC-streptavidin staining based flow cytometry analysis; type: functional; details: time 75.0 min
[3] = target: VEGFR1-VEGA (Homo sapiens) (UniProt P15692+P17948); experiment: Inhibition of human biotinylated-VEGFA165 binding to recombinant human VEGFR1 measured after 2 hrs by chemiluminescent based ELISA; type: protein-complex assay
MDA-MB-231 [4] = experiment: Increase in NRP-1 expression in human MDA-MB-231 cell membrane at 7.2 uM preincubated for 15 mins at 4 degC followed by compound washout and further incubated for 60 mins with subsequent addition of compound at 37 degC by FITC-streptavidin staining based flow cytometry analysis; type: functional; details: time 75.0 min
Homo sapiens = species on record: Homo sapiens; experiment: Selectivity ratio of IC50 for inhibition of human biotinylated-VEGFA165 binding to recombinant human NRP-1 to IC50 for inhibition of human biotinylated-VEGFA165 binding to recombinant human NRP-2
VEGA-NRP1 = VEGA-NRP1 (Homo sapiens, UniProt O14786); experiment: Inhibition of human biotinylated-VEGFA165 binding to recombinant human NRP-1 measured after 2 hrs by chemiluminescent based ELISA; type: protein assay
[5] = Stability in human serum assessed as compound degradation measured upto 96 hrs by LC-SWATH-MS analysis; type: ADME, cell-free
[6] = Stability in human serum assessed as parent compound remaining measured after 12 hrs by LC-SWATH-MS analysis; type: ADME, cell-free; details: read-out: Stability
[7] = Half-life in human serum by LC-SWATH-MS analysis; type: ADME, cell-free
MDA-MB-231 [8] = experiment: Increase in NRP-1 expression in human MDA-MB-231 cell membrane at 72 uM preincubated for 15 mins at 4 degC followed by compound washout and further incubated for 5 mins with subsequent addition of compound at 37 degC by FITC-streptavidin staining based flow cytometry analysis; type: functional; details: time 20.0 min
[9] = Stability in human serum assessed as parent compound remaining measured after 24 hrs by LC-SWATH-MS analysis; type: ADME, cell-free; details: read-out: Stability
[10] = Stability in human serum assessed as parent compound remaining measured after 8 hrs by LC-SWATH-MS analysis; type: ADME, cell-free; details: read-out: Stability

Chain of VEGA-NRP1 (O14786 whole entry, one chain of several): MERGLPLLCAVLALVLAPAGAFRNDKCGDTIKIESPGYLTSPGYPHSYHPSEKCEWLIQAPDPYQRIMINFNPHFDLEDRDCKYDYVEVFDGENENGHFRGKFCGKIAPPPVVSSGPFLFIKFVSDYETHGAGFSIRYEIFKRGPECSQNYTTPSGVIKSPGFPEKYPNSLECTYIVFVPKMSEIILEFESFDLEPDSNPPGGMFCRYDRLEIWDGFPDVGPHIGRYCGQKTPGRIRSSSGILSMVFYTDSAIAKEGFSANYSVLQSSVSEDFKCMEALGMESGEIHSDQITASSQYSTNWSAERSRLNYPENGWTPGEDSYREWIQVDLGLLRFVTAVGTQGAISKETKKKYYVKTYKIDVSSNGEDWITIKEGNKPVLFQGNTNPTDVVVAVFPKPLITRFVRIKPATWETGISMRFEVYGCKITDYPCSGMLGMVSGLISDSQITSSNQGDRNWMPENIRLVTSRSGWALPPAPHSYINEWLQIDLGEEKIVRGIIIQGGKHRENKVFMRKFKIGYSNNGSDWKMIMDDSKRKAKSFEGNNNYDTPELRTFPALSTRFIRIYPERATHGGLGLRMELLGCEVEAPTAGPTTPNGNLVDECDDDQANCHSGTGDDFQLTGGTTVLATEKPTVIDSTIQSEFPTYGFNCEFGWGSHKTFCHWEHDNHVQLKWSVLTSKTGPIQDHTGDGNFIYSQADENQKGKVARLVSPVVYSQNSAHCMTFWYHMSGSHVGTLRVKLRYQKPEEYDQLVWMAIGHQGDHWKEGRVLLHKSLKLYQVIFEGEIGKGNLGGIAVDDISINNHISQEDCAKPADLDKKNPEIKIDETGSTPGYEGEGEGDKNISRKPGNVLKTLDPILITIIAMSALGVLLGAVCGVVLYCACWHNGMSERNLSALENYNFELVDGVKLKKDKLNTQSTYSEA

IC50 (NRP2-VEGA; read-out: IC50)	IC50 (NRP2-VEGA; read-out: pIC50 (converted))	inhibition [1]	inhibition [3]	Ratio IC50 (Homo sapiens)	IC50 (VEGA-NRP1; read-out: IC50)	IC50 (VEGA-NRP1; read-out: pIC50 (converted))	Stability [5]	remaining at 12 h [6]	half-life [7]	remaining at 24 h [9]	remaining at 8 h [10]	Structure (SMILES)	Activity (MDA-MB-231 [2])	Activity (MDA-MB-231 [4])	Activity (MDA-MB-231 [8])
0.043 µM	0.475 µM	inactive	inactive	5	0.039 µM	0.0431 µM	Unstable	61%	~8 h	–	–	N=C(N)NCCCC[C@H](N)C(=O)NCCCC[C@H](NC(=O)[C@@H](N)CS)C(=O)N[C@@H](CCN)C(=O)N1C2CCCCC2C[C@H]1C(=O)N[C@@H](CCCNC(=N)N)C(=O)O (some centres not stated) (HELM PEPTIDE1{C.K.[Dab].[O=C([C@@H]1CC2CCCCC2N1[*:1])[*:2]].R}|PEPTIDE2{[N=C(N)NCCCC[C@H](N)C(=O)[*:2]]}$PEPTIDE1,PEPTIDE2,2:R3-1:R2$$$V2.0)	Active	Active	Active
–	–	–	–	–	–	2.24 µM	–	–	–	0%	56%	N=C(N)NCCCC[C@H](N)C(=O)NCC[C@H](N)C(=O)N[C@@H](CCN)C(=O)N1C2CCCCC2C[C@H]1C(=O)N[C@@H](CCCNC(=N)N)C(=O)O (some centres not stated) (HELM PEPTIDE1{[Dab].[Dab].[O=C([C@@H]1CC2CCCCC2N1[*:1])[*:2]].R}|PEPTIDE2{[N=C(N)NCCCC[C@H](N)C(=O)[*:2]]}$PEPTIDE1,PEPTIDE2,1:R3-1:R2$$$V2.0)	–	–	–
0.009 µM	–	inactive	inactive	5	0.046 µM	–	Unstable	–	< 8 h	–	47%	N=C(N)NCCCC[C@H](NC(=O)[C@@H](N)CS)C(=O)NCCCC[C@H](N)C(=O)N[C@@H](CCN)C(=O)N1C2CCCCC2C[C@H]1C(=O)N[C@@H](CCCNC(=N)N)C(=O)O (some centres not stated) (HELM PEPTIDE1{K.[Dab].[O=C([C@@H]1CC2CCCCC2N1[*:1])[*:2]].R}|PEPTIDE2{C.[N=C(N)NCCCC[C@H](N[*:1])C(=O)[*:2]]}$PEPTIDE1,PEPTIDE2,1:R3-2:R2$$$V2.0)	Active	Active	Active
